In publication PMC5118987 (Antimicrobial Agents and Chemotherapy, 2016):
Read-outs that look alike come from different tables or passages of the source.

Key:
HCV 2a Replicon = assay: Anti-HCV activity, HCV 2a replicon; conditions: Hepatitis C virus, Huh-7
[1] = system: NRTI-, NNRTI- and PI-Resistant HIV-1 Mutants; assay: Antiviral activity against NRTI-, NNRTI- and PI-resistant HIV-1 mutants; assay type: cell-based; conditions: Human immunodeficiency virus 1; WT, Table S7
in vitro = conditions: human, 6 days
Description: Freshly isolated human peripheral blood mononuclear cells (PBMCs) were obtained from healthy volunteers (supplied by AllCells, Inc., Alameda, CA). Blood donors were negative for HIV-1, hepatitis B, and hepatitis C viral infections. CD4^+ T lymphocytes were isolated by negative selection using a magnetically labeled antibody cocktail ([sequence] Technologies Inc., Vancouver, Canada) and cultured in RPMI cell culture media (Life Technologies, Grand Island, NY) supplemented with 10% FBS. CD4^+ T cells were activated for 48 h at 37°C by addition of 1 μg/ml phytohemagglutinin (PHA; Sigma, St. Louis, MO) and 5 ng/ml interleukin-2 (IL-2; Roche Diagnostics, Indianapolis, IN). […] Human PBMCs were used for cytotoxicity assays after culturing for 48 h in either complete RPMI medium alone (resting conditions) or RPMI containing 1 μg/ml PHA and 5 ng/ml IL-2 (activated conditions).

HIV-1 BaL [2] = conditions: primary CD4+ T-cells, 35 days, drug at tissue culture equivalent clinical Cmin (FTC 160 × EC50)
RSV strain A2 = assay: microbe, parasite or virus in culture; assay type: cell-based, respiratory syncytial virus; conditions: human respiratory syncytial virus, HEp-2
[3] = system: HRV (mixture of HRV1A, HRV14, HRV16); assay: microbe, parasite or virus in culture; assay type: cell-based; conditions: Human rhinovirus sp., H1-HeLa
HBV Production = assay: microbe, parasite or virus in culture; conditions: Hepatitis B virus
HIV-1 IIIb [4] = assay: HIV breakthrough selection in MT-2 cells; conditions: MT-2, HIV-1 IIIb; FTC 4× EC95, EVG 5× EC95, BIC and DTG 2.5× and 5× EC95; up to day 32
HIV-1 BaL [5] = assay: Antiviral assay in monocyte-derived macrophages (p24 ELISA); conditions: Human immunodeficiency virus 1, BAL, Macrophage
Description: (§1) Freshly isolated human peripheral blood mononuclear cells (PBMCs) were obtained from healthy volunteers (supplied by AllCells, Inc., Alameda, CA). Blood donors were negative for HIV-1, hepatitis B, and hepatitis C viral infections. CD4^+ T lymphocytes were isolated by negative selection using a magnetically labeled antibody cocktail ([sequence] Technologies Inc., Vancouver, Canada) and cultured in RPMI cell culture media (Life Technologies, Grand Island, NY) supplemented with 10% FBS. CD4^+ T cells were activated for 48 h at 37°C by addition of 1 μg/ml phytohemagglutinin (PHA; Sigma, St. Louis, MO) and 5 ng/ml interleukin-2 (IL-2; Roche Diagnostics, Indianapolis, IN).
(§2) A 3-fold serial dilution of test compounds in RPMI medium was added to triplicate wells and incubated at 37°C for 5 days. Human monocytes were seeded on 96-well plates at a density of 3 × 10^5 cells per well, differentiated into adherent macrophages, and then infected with HIV-1 BaL virus in 50 μl RPMI for 3 h at 37°C. […] The supernatants derived from the CD4^+ T-cell and macrophage cultures were harvested 6 and 12 days postinfection, respectively, and the amount of HIV present was quantified by p24 enzyme-linked immunosorbent assay (ELISA) (PerkinElmer, Waltham, MA).

HIV-1 BaL [6] = assay: Antiviral assay in primary CD4+ T lymphocytes (p24 ELISA); conditions: Human immunodeficiency virus 1, BAL
Description: as §1, §2

[7] = system: INSTI-resistant HIV-1 mutants (HXB2); assay: microbe, parasite or virus in culture; assay type: cell-based
HIV-1 clinical isolates = assay: Antiviral assay against HIV-1 clinical isolates in fresh human PBMCs (RT endpoint)
[8] = Cytotoxicity in AD38 cells; conditions: human
[9] = system: inhibitor-selected HIV-1 IIIb passages; assay: Phenotypic profile of selected HIV-1 passages; assay type: cell-based; conditions: Human immunodeficiency virus 1, IIIB
HCV 1b Replicon = assay: Anti-HCV activity, HCV 1b replicon; conditions: Hepatitis C virus, Huh-7
HIV-1 IIIb [10] = assay: Antiviral assay in MT-4 cells; assay type: cell-based; conditions: Human immunodeficiency virus 1, MT4, 120 h, 5 days
Description: For the antiviral assay utilizing MT-2 and MT-4 cells, 50 μl of a 2× test concentration of 5-fold serially diluted compound in culture medium with 10% FBS was added to each well of a 96-well plate (9 concentrations) in triplicate. MT-2 and MT-4 cells were infected with HIV-1 IIIb at a multiplicity of infection (MOI) of 0.01 for 3 h. Fifty microliters of infected cell suspension in culture medium with 10% FBS (∼1.5 × 10^4 cells) then was added to each well containing 50 μl of diluted compound. The plates were then incubated at 37°C for 5 days. After 5 days of incubation, 100 μl of CellTiter-Glo reagent (Promega Biosciences, Inc., Madison, WI) was added to each well containing MT-2 or MT-4 cells. Cell lysis was carried out by incubation at room temperature for 10 min and chemiluminescence was read. For compound cytotoxicity assessment, the protocol was identical except that uninfected cells were used and compounds were serially diluted 3-fold.

Influenza B/LEE/40 = assay: microbe, parasite or virus in culture; assay type: cell-based; conditions: NHBE

SMILES: O=C(NCc1c(F)cc(F)cc1F)c1cn2c(c(O)c1=O)C(=O)N1[C@H]3CC[C@H](C3)O[C@@H]1C2 [BIC, Bictegravir]
- EC50 (HCV 2a Replicon): > 44000 nM
- EC50 [1]: 1.7 ± 0.5 nM
- CC50 (in vitro; CC50, Activated PBMCs (IL-2/PHA 2 days)): 5700 nM
- CC50 (in vitro; CC50, Resting PBMCs): 8400 nM
- Frequency of Viral Breakthrough with RAMs (HIV-1 BaL [2]): 0%
- p24+ Wells (HIV-1 BaL [2]): 0/24
- EC50 (RSV strain A2): > 50000 nM
- EC50 [3]: > 50000 nM
- EC50 (HBV Production): > 50000 nM
- day postinfection of HIV-1 breakthrough (HIV-1 IIIb [4]): no virus breakthrough was observed
- EC50 (HIV-1 BaL [5]): 6.6 ± 4.1 nM
- EC50 (HIV-1 BaL [6]): 1.5 ± 0.3 nM
- EC50 ([7]; Human immunodeficiency virus 1, HXB2, IN mutant E92Q): 2 ± 0.8 nM
- EC50 ([7]; Human immunodeficiency virus 1, HXB2, IN mutant E92Q/N155H): 2 ± 0.2 nM
- EC50 ([7]; Human immunodeficiency virus 1, HXB2, IN mutant E138K/Q148K): 13.7 ± 1.2 nM
- EC50 ([7]; Human immunodeficiency virus 1, HXB2, IN mutant G140S/Q148R): 3.1 ± 0.8 nM
- EC50 ([7]; Human immunodeficiency virus 1, HXB2, IN mutant M50I (BIC/DTG selection)): 1.9 ± 0.3 nM
- EC50 ([7]; Human immunodeficiency virus 1, HXB2, IN mutant M50I/R263K (BIC selection)): 4.2 ± 0.9 nM
- EC50 ([7]; Human immunodeficiency virus 1, HXB2, IN mutant M50I/S119R/R263K (DTG selection)): 6.4 ± 1.6 nM
- EC50 ([7]; Human immunodeficiency virus 1, HXB2, IN mutant N155H): 1.6 ± 0.4 nM
- EC50 ([7]; Human immunodeficiency virus 1, HXB2, IN mutant N155H/Q148R): 7.1 ± 4.3 nM
- EC50 ([7]; Human immunodeficiency virus 1, HXB2, IN mutant Q148R): 1 ± 0.3 nM
- EC50 ([7]; Human immunodeficiency virus 1, HXB2, IN mutant R263K (BIC/DTG selection), Table 7): 3.2 ± 0.7 nM
- EC50 ([7]; Human immunodeficiency virus 1, HXB2, IN mutant R263K, Table 6): 2.9 ± 0.7 nM
- EC50 ([7]; Human immunodeficiency virus 1, HXB2, IN mutant S119R (DTG selection)): 2.7 ± 0.7 nM
- EC50 ([7]; Human immunodeficiency virus 1, HXB2, IN mutant S119R/R263K (DTG selection)): 4.2 ± 1.3 nM
- EC50 ([7]; Human immunodeficiency virus 1, HXB2, IN mutant S153Y (DTG selection)): 3.9 ± 0.7 nM
- EC50 ([7]; Human immunodeficiency virus 1, HXB2, IN mutant S153Y/R263K (DTG selection)): 8.3 ± 1.4 nM
- EC50 ([7]; Human immunodeficiency virus 1, HXB2, IN mutant Y143R): 1.8 ± 0.5 nM
- EC50 ([7]; Human immunodeficiency virus 1, HXB2, WT (HXB2), Table 6, read-out: EC50): 1.6 ± 0.4 nM
- EC50 ([7]; Human immunodeficiency virus 1, HXB2, WT (HXB2), Table 7, read-out: EC50): 1.5 ± 0.3 nM
- cross-resistance to single-mutant HIV-1 variants ([7]; {}): 1-2 fold
- EC50 (HIV-1 clinical isolates; Human immunodeficiency virus 1, BAL, PBMC, HIV-1 subtype B isolate BaL, human PBMCs): 0.35 ± 0.12 nM
- EC50 (HIV-1 clinical isolates; Human immunodeficiency virus 1, PBMC, HIV-1 subtype A isolate 92RW016, human PBMCs): 0.71 ± 0.26 nM
- EC50 (HIV-1 clinical isolates; Human immunodeficiency virus 1, PBMC, HIV-1 subtype A isolate 92UG037, human PBMCs): 1.5 ± 0.6 nM
- EC50 (HIV-1 clinical isolates; Human immunodeficiency virus 1, PBMC, HIV-1 subtype B isolate 89BZ_167, human PBMCs): 1 ± 0.5 nM
- EC50 (HIV-1 clinical isolates; Human immunodeficiency virus 1, PBMC, HIV-1 subtype B isolate 91US001, human PBMCs): 0.89 ± 0.17 nM
- EC50 (HIV-1 clinical isolates; Human immunodeficiency virus 1, PBMC, HIV-1 subtype B isolate 91US004, human PBMCs): 1.2 ± 0.4 nM
- EC50 (HIV-1 clinical isolates; Human immunodeficiency virus 1, PBMC, HIV-1 subtype C isolate 93IN905, human PBMCs): 0.15 ± 0.01 nM
- EC50 (HIV-1 clinical isolates; Human immunodeficiency virus 1, PBMC, HIV-1 subtype C isolate 98US_MSC5016, human PBMCs): 1.2 ± 0.2 nM
- EC50 (HIV-1 clinical isolates; Human immunodeficiency virus 1, PBMC, HIV-1 subtype D isolate 98UG_57128, human PBMCs): 0.33 ± 0.01 nM
- EC50 (HIV-1 clinical isolates; Human immunodeficiency virus 1, PBMC, HIV-1 subtype E isolate 96TH_M02138, human PBMCs): 0.51 ± 0.17 nM
- EC50 (HIV-1 clinical isolates; Human immunodeficiency virus 1, PBMC, HIV-1 subtype E isolate 96TH_NI1046, human PBMCs): 0.25 ± 0.06 nM
- EC50 (HIV-1 clinical isolates; Human immunodeficiency virus 1, PBMC, HIV-1 subtype F isolate 93BR020, human PBMCs): 1.2 ± 0.5 nM
- EC50 (HIV-1 clinical isolates; Human immunodeficiency virus 1, PBMC, read-out: mean EC50 against clinical isolates, 14 HIV-1 isolates and one HIV-2 isolate, human PBMCs): 0.81 nM
- EC50 (HIV-1 clinical isolates; Human immunodeficiency virus 1, PBMC, read-out: range of EC50s against clinical isolates, 14 HIV-1 isolates and one HIV-2 isolate, human PBMCs): 0.04 to 1.7 nM
- CC50 at 5 days [8]: > 50000 nM
- EC50 ([9]; 480 h, selected virus EVG P2 (day 20, 7.2 nM)): 5.8 nM
- EC50 ([9]; HIV-1-IIIb (unselected)): 2.2 nM
- EC50 ([9]; selected virus BIC P3 (day 47, 6 nM)): 3.8 nM
- EC50 ([9]; selected virus BIC P5 (day 71, 12 nM)): 5.8 nM
- EC50 ([9]; selected virus BIC P6 (day 86, 24 nM)): 7.8 nM
- EC50 ([9]; selected virus BIC P8 (day 156, 96 nM)): 11.2 nM
- EC50 ([9]; selected virus BIC P9 (day 181, 192 nM)): 17.5 nM
- EC50 ([9]; selected virus BIC P10 (day 234, 384 nM)): 13.5 nM
- EC50 ([9]; selected virus DTG P3Lo (day 59, 6.4 nM)): 2.9 nM
- EC50 ([9]; selected virus DTG P4 (day 87, 9.6 nM)): 7.8 nM
- EC50 ([9]; selected virus DTG P5 (day 97, 14.4 nM)): 10.6 nM
- EC50 ([9]; selected virus DTG P7 (day 139, 32.4 nM)): 21.8 nM
- EC50 ([9]; selected virus DTG P9 (day 174, 72.9 nM)): 23.8 nM
- EC50 ([9]; selected virus DTG P10 (day 202, 109.4 nM)): 30 nM
- EC50 ([9]; selected virus EVG P4 (day 41, 28.8 nM)): 6.5 nM
- EC50 ([9]; selected virus EVG P6 (day 56, 115 nM)): 6.8 nM
- EC50 ([9]; selected virus EVG P7 (day 67, 230 nM)): 8.9 nM
- EC50 ([9]; selected virus EVG P9 (day 94, 922 nM)): 6.8 nM
- EC50 ([9]; selected virus EVG P10 (day 119, 1843 nM)): 2.9 nM
- EC50 (HCV 1b Replicon): > 44000 nM
- EC50 (HIV-1 IIIb [10]): 2.4 ± 0.4 nM
- EC50 (Influenza B/LEE/40): 37200 nM
